Laboratory results reported in ChEMBL document CHEMBL1201862, “PubChem BioAssay data set” (2004).
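Protocol summary: plate cells (96-well), add compound at 5 concentrations, incubate 48 h, interpolate endpoints linearly. GI50 is the concentration that inhibits growth by half.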 Activity calls are given as the source filed them. No stated cut-off is given here; in the data, active = GI50 up to about 1.1 µM and inactive = higher.

Legend:
Test in all cases: NCI-60 cell line screen, 48 h
[1] = tested on: HOP-62
[2] = tested on: SR
[3] = tested on: OVCAR-4
[4] = tested on: ACHN
[5] = tested on: OVCAR-3
[6] = tested on: DU-145
[7] = tested on: HCT-15
[8] = tested on: SN12C
[9] = tested on: EKVX
[10] = tested on: MDA-MB-231
[11] = tested on: COLO 205
[12] = tested on: Malme-3M
[13] = tested on: HCT-116
[14] = tested on: UO-31
[15] = tested on: 786-0
[16] = tested on: LOX IMVI
[17] = tested on: SNB-19
[18] = tested on: K562
[19] = tested on: OVCAR-5
[20] = tested on: TK-10
[21] = tested on: NCI/ADR-RES
[22] = tested on: KM12
[23] = tested on: A549
[24] = tested on: HCC 2998
[25] = tested on: CAKI-1
[26] = tested on: U-251
[27] = tested on: MCF7
[28] = tested on: OVCAR-8
[29] = tested on: MDA-N
[30] = tested on: HOP-92
[31] = tested on: RPMI-8226
[32] = tested on: MOLT-4
[33] = tested on: SK-MEL-2
[34] = tested on: SF-295
[35] = tested on: SK-MEL-28
[36] = tested on: MDA-MB-435
[37] = tested on: NCI-H23
[38] = tested on: UACC-257
[39] = tested on: M14
[40] = tested on: BT-549
[41] = tested on: PC-3
[42] = tested on: SK-MEL-5
[43] = tested on: HL-60
[44] = tested on: CCRF-CEM
[45] = tested on: NCI-H460
[46] = tested on: HT-29
[47] = tested on: Hs-578T
[48] = tested on: IGROV-1
[49] = tested on: SK-OV-3
[50] = tested on: RXF 393
[51] = tested on: SF-539
[52] = tested on: A498
[53] = tested on: SNB-75
[54] = tested on: UACC-62
[55] = tested on: SW-620
[56] = tested on: NCI-H226

O=S1(=O)OCCOS(=O)(=O)C1Cc1nc2ccccc2[nH]1
GI50 [1]: 26.8 µM (inactive) | GI50 [2]: 28.6 µM (inactive) | GI50 [3]: 44.2 µM (inactive) | GI50 [4]: 32.1 µM (inactive) | GI50 [5]: 45.8 µM (inactive) | GI50 [6]: > 100 µM (inactive) | GI50 [7]: 26 µM | GI50 [8]: 35.2 µM (inactive) | GI50 [9]: > 100 µM (inactive) | GI50 [10]: 43 µM (inactive) | GI50 [11]: 83.2 µM (inactive) | GI50 [12]: > 100 µM (inactive) | GI50 [13]: 23 µM (inactive) | GI50 [14]: 75.7 µM (inactive) | GI50 [15]: 39.7 µM (inactive) | GI50 [16]: 14.5 µM (inactive) | GI50 [17]: 37.2 µM (inactive) | GI50 [18]: 34.5 µM (inactive) | GI50 [19]: > 100 µM (inactive) | GI50 [20]: > 100 µM (inactive) | GI50 [21]: 30.3 µM (inactive) | GI50 [22]: 68.2 µM (inactive) | GI50 [23]: 44.6 µM (inactive) | GI50 [24]: 54.7 µM (inactive) | GI50 [25]: 27 µM (inactive) | GI50 [26]: 38.6 µM (inactive) | GI50 [27]: 33.7 µM (inactive) | GI50 [28]: 55.6 µM (inactive) | GI50 [29]: 22.3 µM (inactive) | GI50 [30]: 0.114 µM (active) | GI50 [31]: 34.3 µM (inactive) | GI50 [32]: 24.2 µM (inactive) | GI50 [33]: 72.3 µM (inactive) | GI50 [34]: 24.7 µM (inactive) | GI50 [35]: 97.1 µM (inactive) | GI50 [36]: 51.2 µM (inactive) | GI50 [37]: 41 µM (inactive) | GI50 [38]: 29.2 µM (inactive) | GI50 [39]: 44.8 µM (inactive) | GI50 [40]: > 10 µM (inactive) | GI50 [41]: 19.6 µM (inactive) | GI50 [42]: 34.7 µM (inactive) | GI50 [43]: 22.5 µM (inactive) | GI50 [44]: 33 µM (inactive) | GI50 [45]: 28.2 µM (inactive) | GI50 [46]: 51.2 µM (inactive)

COC(C)(C)C1(O)CCC(C)CC1=O (configuration not stated)
GI50 [2]: > 100 µM (inactive) | GI50 [47]: > 100 µM (inactive) | GI50 [5]: > 100 µM (inactive) | GI50 [48]: > 100 µM (inactive) | GI50 [11]: > 100 µM (inactive) | GI50 [14]: > 100 µM (inactive) | GI50 [15]: > 100 µM (inactive) | GI50 [17]: > 100 µM (inactive) | GI50 [24]: > 100 µM (inactive) | GI50 [25]: > 100 µM (inactive) | GI50 [26]: > 100 µM (inactive) | GI50 [28]: > 100 µM (inactive) | GI50 [29]: > 100 µM (inactive) | GI50 [30]: > 100 µM (inactive) | GI50 [32]: > 100 µM (inactive) | GI50 [49]: > 100 µM (inactive) | GI50 [40]: > 100 µM (inactive) | GI50 [41]: > 100 µM (inactive) | GI50 [42]: > 100 µM (inactive) | GI50 [43]: 85.7 µM (inactive) | GI50 [50]: > 100 µM (inactive) | GI50 [45]: > 100 µM (inactive) | GI50 [46]: > 100 µM (inactive)

CC(C)(C)n1c(=O)n(-c2ccccc2)n(C(C)(C)C)c1=O
GI50 [1]: > 100 µM (inactive) | GI50 [51]: > 100 µM (inactive) | GI50 [2]: > 100 µM (inactive) | GI50 [47]: > 100 µM (inactive) | GI50 [3]: > 100 µM (inactive) | GI50 [4]: > 100 µM (inactive) | GI50 [52]: > 100 µM (inactive) | GI50 [5]: > 100 µM (inactive) | GI50 [53]: 63.1 µM (inactive) | GI50 [7]: > 100 µM | GI50 [8]: > 100 µM (inactive) | GI50 [9]: > 100 µM (inactive) | GI50 [48]: > 100 µM (inactive) | GI50 [10]: > 100 µM (inactive) | GI50 [11]: > 100 µM (inactive) | GI50 [12]: > 100 µM (inactive) | GI50 [13]: > 100 µM (inactive) | GI50 [54]: > 100 µM (inactive) | GI50 [14]: > 100 µM (inactive) | GI50 [15]: > 100 µM (inactive) | GI50 [16]: > 100 µM (inactive) | GI50 [17]: > 100 µM (inactive) | GI50 [18]: > 100 µM (inactive) | GI50 [19]: > 100 µM (inactive) | GI50 [20]: > 100 µM (inactive) | GI50 [21]: > 100 µM (inactive) | GI50 [22]: > 100 µM (inactive) | GI50 [23]: > 100 µM (inactive) | GI50 [24]: > 100 µM (inactive) | GI50 [25]: > 100 µM (inactive) | GI50 [26]: > 100 µM (inactive) | GI50 [27]: > 100 µM (inactive) | GI50 [55]: > 100 µM (inactive) | GI50 [28]: > 100 µM (inactive) | GI50 [29]: > 100 µM (inactive) | GI50 [30]: > 100 µM (inactive) | GI50 [56]: > 100 µM (inactive) | GI50 [32]: > 100 µM (inactive) | GI50 [33]: > 100 µM (inactive) | GI50 [34]: > 100 µM (inactive) | GI50 [35]: > 100 µM (inactive) | GI50 [49]: > 100 µM (inactive) | GI50 [37]: > 100 µM (inactive) | GI50 [38]: > 100 µM (inactive) | GI50 [39]: > 100 µM (inactive) | GI50 [40]: > 100 µM (inactive) | GI50 [41]: > 100 µM (inactive) | GI50 [42]: > 100 µM (inactive) | GI50 [43]: > 100 µM (inactive) | GI50 [50]: > 100 µM (inactive) | GI50 [44]: > 100 µM (inactive) | GI50 [45]: > 100 µM (inactive) | GI50 [46]: > 100 µM (inactive)
